Patent EP0372889A1, “Doxorubicin solutions” (Bristol-Myers Squibb Company, priority 1988, dated 1990)
Where a name gives a salt, the structure may show the parent alone. Read-outs that look alike come from different tables or passages of the source.

Experiments:
[1] = Solubility of doxorubicin HCl in non-aqueous solvents; type: physicochemical; settings: for solubility: organic solvent or mixture
Protocol: Doxorubicin HCl at room temperature has a solubility of less than 5 mg/ml in propylene glycol, 1,2-dihydroxybutane and 1,3-dihydroxypropane. […] Solubility of doxorubicin HCl can be increased to about 20 mg/ml in the above-mentioned solvents by addition of 5-10% (v/v) water.

[2] = type: physicochemical
Text: It is also necessary for optimum stability of the solutions, especially at elevated temperatures which may be encountered at some time during the life of the product, e.g. during shipping, to utilize an antioxidant. We have tested a number of antioxidants including α-tocopherol, tert-butylhydroquinone (TBHQ), sodium formaldehyde bisulfite, butylated hydroxy anisole (BHA), butylated hydroxy toluene (BHT), sodium bisulfite and propyl gallate. […] This finding was disclosed and claimed in our EP-A-88111434.2 and in co-pending U.S. application Serial Number 246,602 filed September 20, 1988 and incorporated by reference herein in their entirety. […] Generally, an amount of sodium acetone bisulfite is employed in the range of about 0.1 to 20 mg/ml with about 2 mg/ml being most preferred.
Despite reports of potency losses of doxorubicin HCl solutions via photolytic degradation and adsorption to container walls, we have not noted any significant loss of potency due to container adsorption or sensitivity to normal room light with our solutions. Glass vials may conveniently be used as the container.
As an example of a stable non-aqueous solution of doxorubicin, 20 mg/ml of doxorubicin hydrochloride, 0.2 mg/ml citric acid (anhydrous), 2.0 mg/ml of sodium acetone bisulfite and a solvent medium consisting of deaerated propylene glycol/water (90:10 v/v) are added to a Type 1 flint vial, the vial is purged with nitrogen and then sealed with a suitable teflon-coated stopper. […] Substantially equivalent results are obtained when 1,2-dihydroxybutane and 1,3-dihydroxypropane solvent systems are used.

[3] = cited from earlier work

COc1cccc2c1C(=O)c1c(O)c3c(c(O)c1C2=O)C[C@@](O)(C(=O)CO)C[C@@H]3O[C@H]1C[C@H](N)[C@H](O)[C@H](C)O1 [Doxorubicin HCl, doxorubicin hydrochloride]
chemical stability of solutions ([1]; glycerol formal, 2-pyrrolidinone and 1-methyl-2-pyrrolidinone): chemically unstable
solubility ([1]; glycerol formal, pyrrolidinones, glycerol formal, 2-pyrrolidinone and 1-methyl-2-pyrrolidinone, read-out: solution concentration produced): ≥ 5000 µg/mL
solubility ([1]; glycols with 5-10% water, propylene glycol, 1,2-dihydroxybutane, 1,3-dihydroxypropane with addition of 5-10% (v/v) water, read-out: Solubility): ~20000 µg/mL
solubility ([1]; propylene glycol, butanediol, propanediol, room temperature, in propylene glycol, 1,2-dihydroxybutane and 1,3-dihydroxypropane, read-out: solubility): < 5000 µg/mL
solubility ([1]; propylene glycol, butanediol, propanediol, same solvents, short-term (0.5-1 hour) warming (60-80°C) with vigorous stirring, read-out: solubility): ~10000 µg/mL
physical stability of solution on cold storage ([1]; stored at 4°C to -20°C, seeding with crystalline doxorubicin HCl does not affect crystallization): remains in solution
potency loss ([1]; upon short-term (0.5-1 hour) warming (60-80°C) in propylene glycol, 1,2-dihydroxybutane, 1,3-dihydroxypropane): no potency loss
solubility ([1]; various organic solvents, with heating, polyethylene glycols, ethanol, benzyl alcohol, dimethylisosorbide, ethyl lactate, Solketol, Cremophors, Pluronics, read-out: Solubilities): < 5000 µg/mL
potency retained ([2]; 20 mg/ml, 0.2 mg/ml citric acid, 2.0 mg/ml sodium acetone bisulfite, propylene glycol/water (90:10 v/v), nitrogen purged, 2 weeks at 40°C, 20160 min): 97.2%
potency retained ([2]; same solution, 4 weeks at 40°C, 40320 min): 93.4%
potency retained ([2]; same solution, 12 weeks at 40°C, 120960 min): 88.2%
acceptable shelf-life (≦10% potency loss) ([2]; same solution, 37°C): at least four
acceptable shelf-life (≦10% potency loss) ([2]; same solution, room temperature): at least 18 months
stable ([3]; commercial preservative-free ready-to-use aqueous solution, 4°C, manufacturer): 18 months
undesirable and potentially toxic degradation products ([3]; commercial ready-to-use aqueous solution, at the end of 18 months at 4°C, 788400 min): up to 10%
remains stable ([3]; reconstituted solution in 0.9% NaCl solution, room temperature or 5°C, Ketcyhum, et al.): seven

O=S(=O)(O)CO [sodium formaldehyde bisulfite]
stabilization of doxorubicin solutions by antioxidant [2]: resulted in the desired stability

CC(C)(C)c1cc(O)ccc1O [tert-butylhydroquinone]
stabilization of doxorubicin solutions by antioxidant ([2]; elevated temperatures as well as room temperature (25°C) or below): resulted in the desired stability

Cc1c(C)c2c(c(C)c1O)CCC(C)(CCCC(C)CCCC(C)CCCC(C)C)O2 (stereo not drawn) [α-tocopherol]
stabilization of doxorubicin solutions by antioxidant [2]: resulted in the desired stability
